{"source": "patent US12539333B2", "about": "“Tetracycline complexes with sustained activity” (FRAUNHOFER-GESELLSCHAFT ZUR FÖRDERUNG DER ANGEWANDTEN …, priority 2018, dated 2026)", "key": {"[1]": {"assay": "Stability in aqueous environment (HPLC)", "experimental": "For the stability investigations an Agilent 1200 Series system with a XTerra RP18 5 μm 3.9×150 column (Waters) was utilized. 10 μl sample volume were injected at a flowrate of 1.0 ml/min. For this method was also a gradient program applied. The mobile phase started with a composition of water/methanol (95/5+0.1% TFA) (A) and was shifted over 7 minutes to pure methanol (0.1% TFA) (B). After 3 minutes the mobile phase returned to solvent A within 1 minute. The retention time was 4.8 minutes. For the evaluation and extraction of the chromatograms, the Chem32 software was used.\nFor the stability investigation, 10 mg samples for minocycline and 20 mg for the complex were weighed into 4 ml glass vials. One of each vial was incubated in 4 ml of PBS pH 7.0 and another vial was exposed to 4 ml of an acidic solution at pH 2.3, which was adjusted with hydrochloric acid. Until the 9th day, samples were taken every day, while the removed volume was not replaced. From there on the intervals were stretched to 3 to 4 days."}, "S. aureus ATCC 29213": {"tested_on": "S. aureus ATCC 29213", "assay": "Agar disc diffusion test", "type": "cell-based, Staphylococcus aureus", "details": "30 μg of minocycline per disc; 35° C., 18 h", "method": ". The procedure followed the recommendations set by EUCAST.\nTest substance was the minocycline complex containing 10 mg/ml minocycline and controls were minocycline dissolved in ethanol (10 mg/ml), and pure ethanol. Solutions were diluted 3:7 with ethanol and immediately thereafter each 10 μl were pipetted to unloaded antibiotic test discs with a diameter of 6 mm (BD, Allschwil, Switzerland), thus each discs (except for ethanol control) contained 30 μg of minocycline. Overnight culture of S. aureus ATCC 29213 was suspended to McFarland 0.5, each 100 μl was spread on Mueller-Hinton-agar plate (Oxoid, Basingstoke, GB). Following the evaporation of the solvent, the test discs were placed on the plates. After incubation at 35° C. for 18 h, the diameters of the inhibition zones were measured."}, "[2]": {"tested_on": "Porphyromonas gingivalis ATCC 33277", "assay": "MIC determination of eluates and calculated effective concentration of minocycline", "type": "cell-based", "details": "for Effective concentration of minocycline, calculated based on the MIC of the eluates (dilutions): P. ging.", "excerpt": "(§1) In order to assess the release kinetics and biological activity of the active substances, an approach was chosen taking into consideration the conditions in the oral cavity, namely the flow rate (turnover) and composition of the sulcus in the gingival crevicular fluid (as described in Goodson, J M (2003), Periodontol 2000 31:43-54; Tew, J G et al. (1985), Infect Immun 49:487-93)."}, "[3]": {"tested_on": "Streptococcus gordonii ATCC 10558", "assay": "MIC determination of eluates and calculated effective concentration of minocycline", "type": "cell-based", "details": "for Effective concentration of minocycline, calculated based on the MIC of the eluates (dilutions): S. gord.", "excerpt": "as §1"}}, "note": "Entries after “also recorded” stand apart in the source; their conditions may differ.", "data": [{"compound": "CN(C)c1ccc(O)c2c1C[C@H]1C[C@H]3[C@H](N(C)C)C(O)=C(C(N)=O)C(=O)[C@@]3(O)C(O)=C1C2=O", "note": "[Minocycline, (4S,4aS,5aR,12aR)-4,7-bis(dimethylamino)-1,10,11,12a-tetrahydroxy-3,12-dioxo-4a,5,5a,6-tetrahydro-4H-tetracene-2-carboxamide]", "values": [{"measurement": "time within which the minocycline peak vanishes", "setting": "[1]; PBS pH 7.0, 37° C.", "value": "≤ 3", "unit": "days"}, {"measurement": "decay in aqueous environment", "setting": "[1]; acidic conditions pH 2.3, 37° C.", "value": "decomposition process is slower; also recorded: more moderate decay"}, {"measurement": "time to complete decomposition", "setting": "[1]; buffer (PBS) pH 7.1, 37° C.", "value": 3, "unit": "days"}, {"measurement": "diameter of the inhibition zone", "setting": "S. aureus ATCC 29213", "value": 26, "unit": "mm"}, {"measurement": "MIC", "setting": "[2]; Porphyromonas gingivalis, ATCC33277, P. gingivalis ATCC 33277", "value": 0.25, "unit": "µg/mL"}, {"measurement": "Effective concentration of minocycline, calculated based on the MIC of the eluates (dilutions)", "setting": "[2]; eluate 1 h", "value": ">32000"}, {"measurement": "Effective concentration of minocycline, calculated based on the MIC of the eluates (dilutions)", "setting": "[2]; eluate 2 h", "value": 2000}, {"measurement": "Effective concentration of minocycline, calculated based on the MIC of the eluates (dilutions)", "setting": "[2]; eluate 4 h", "value": 1000}, {"measurement": "Effective concentration of minocycline, calculated based on the MIC of the eluates (dilutions)", "setting": "[2]; eluate 24 h", "value": 500}, {"measurement": "Effective concentration of minocycline, calculated based on the MIC of the eluates (dilutions)", "setting": "[2]; eluate 2 d", "value": 62.5}, {"measurement": "Effective concentration of minocycline, calculated based on the MIC of the eluates (dilutions)", "setting": "[2]; eluate 7 d", "value": 62.5}, {"measurement": "Effective concentration of minocycline, calculated based on the MIC of the eluates (dilutions)", "setting": "[2]; eluate 14 d", "value": 4}, {"measurement": "Effective concentration of minocycline, calculated based on the MIC of the eluates (dilutions)", "setting": "[2]; eluate 21 d", "value": "<1"}, {"measurement": "Effective concentration of minocycline, calculated based on the MIC of the eluates (dilutions)", "setting": "[2]; eluate 28 d", "value": "<1"}, {"measurement": "Effective concentration of minocycline, calculated based on the MIC of the eluates (dilutions)", "setting": "[2]; eluate 35 d", "value": "<1"}, {"measurement": "Effective concentration of minocycline, calculated based on the MIC of the eluates (dilutions)", "setting": "[2]; eluate 42 d", "value": "<1"}, {"measurement": "MIC", "setting": "[3]; Streptococcus gordonii, ATCC10558, S. gordonii ATCC 10558", "value": 0.5, "unit": "µg/mL"}, {"measurement": "Effective concentration of minocycline, calculated based on the MIC of the eluates (dilutions)", "setting": "[3]; eluate 1 h", "value": ">16000"}, {"measurement": "Effective concentration of minocycline, calculated based on the MIC of the eluates (dilutions)", "setting": "[3]; eluate 2 h", "value": 8000}, {"measurement": "Effective concentration of minocycline, calculated based on the MIC of the eluates (dilutions)", "setting": "[3]; eluate 4 h", "value": 2000}, {"measurement": "Effective concentration of minocycline, calculated based on the MIC of the eluates (dilutions)", "setting": "[3]; eluate 24 h", "value": 250}, {"measurement": "Effective concentration of minocycline, calculated based on the MIC of the eluates (dilutions)", "setting": "[3]; eluate 2 d", "value": 62.5}, {"measurement": "Effective concentration of minocycline, calculated based on the MIC of the eluates (dilutions)", "setting": "[3]; eluate 7 d", "value": 4}, {"measurement": "Effective concentration of minocycline, calculated based on the MIC of the eluates (dilutions)", "setting": "[3]; eluate 14 d", "value": "<2"}, {"measurement": "Effective concentration of minocycline, calculated based on the MIC of the eluates (dilutions)", "setting": "[3]; eluate 21 d", "value": "<2"}, {"measurement": "Effective concentration of minocycline, calculated based on the MIC of the eluates (dilutions)", "setting": "[3]; eluate 28 d", "value": "<2"}, {"measurement": "Effective concentration of minocycline, calculated based on the MIC of the eluates (dilutions)", "setting": "[3]; eluate 35 d", "value": "<2"}, {"measurement": "Effective concentration of minocycline, calculated based on the MIC of the eluates (dilutions)", "setting": "[3]; eluate 42 d", "value": "<2"}]}, {"compound": "1:2 Complex of Minocycline (Free Base) and Magnesium Stearate [Example 1]", "values": [{"measurement": "time after which the minocycline peak is still visible", "setting": "[1]; PBS pH 7.0, 37° C.", "value": "≥ 3", "unit": "weeks"}, {"measurement": "decay in aqueous environment", "setting": "[1]; neutral conditions, 37° C.", "value": "much slower"}, {"measurement": "diameter of the inhibition zone", "setting": "S. aureus ATCC 29213", "value": 24, "unit": "mm"}]}]}
